# Tested on: RD29B and MAPKKK18
# Experiment: Effect of Lys derivatives and nitrogen-containing compounds on induction of environmental stress tolerance genes by ABA (activity level)
# Format: in vivo, Arabidopsis thaliana
# Conditions: 1 mM compound with 0.25 μM ABA
# Procedure: (§1) Four to six young Arabidopsis thaliana plants grown on a 50% concentration MS (Murashige-Skoog) agar medium were transferred to a 6-well plate containing a 50% concentration MS (Murashige-Skoog) liquid medium and pre-cultured for 16 hours, then added with a treatment solution containing each amino acid alone or a treatment solution containing a combination of each amino acid and ABA, and left for 6 hours. Then, RNA was then isolated from the plants with a nucleic acid purification kit (Promega, Maxwell (registered trademark) 16 LEV simplyRNA Tissue Kit). Then, cDNA was synthesized with a cDNA synthesis reagent for real-time PCR (Toyobo, ReverTra Ace (registered trademark) qPCR RT Master Mix).
# GAPDH is a glyceraldehyde-3-phosphate dehydrogenase gene and was selected as an internal standard.
# Lys or each Lys derivative is used for treatment at 1 mM and ABA at 0.25 μM.
row,Structure (SMILES),effect on the gene expression inducing activity of ABA
1,CC(C)(C)OC(=O)NCCCC[C@H](N)C(=O)OC(C)(C)C [compound 28],no effect
2,CC(C)(C)OC(=O)[C@@H](N)CCCCNC(=O)OCc1ccccc1 [compound 25],no effect
3,N[C@@H](CCCCNC(=O)OCc1ccccc1)C(=O)O [compound 11],no effect
4,COC(=O)[C@@H](N)CCCCN [compound 7],no effect

# Same assay, conditions: total of induction activities of RD29B and MAPKKK18 with 1 mM compound and 0.25 μM ABA, relative to ABA alone taken as 1; >1 enhanced, 1 no effect, <1 suppressed
row,Structure (SMILES),Activity level
1,O=C(N[C@@H](CCCCNC(=O)c1ccccc1)C(=O)O)OCc1ccccc1 [compound 35],>1
2,O=C(NCCCC[C@@H](NC(=O)OCc1ccccc1)C(=O)O)OCc1ccccc1 [compound 34],>1
3,CC(=O)NCCCC[C@H](N)C(=O)O [compound 8],<1
4,O=C(O)[C@H](CCCCN1C(=O)c2ccccc2C1=O)N1C(=O)c2ccccc2C1=O [compound 45],>1
5,O=C(NCCCC[C@H](NC(=O)OCC1c2ccccc2-c2ccccc21)C(=O)O)OCC1c2ccccc2-c2ccccc21 [compound 42],>1
6,NCCCC[C@H](NC(=O)OCc1ccccc1)C(=O)O [compound 17],>1
7,CC(C)(C)OC(=O)NCCCC[C@H](N)C(=O)O [compound 12],>1
8,CC(C)(C)OC(=O)NCCCC[C@H](N)C(=O)OC(C)(C)C [compound 28],1
9,CC(C)(C)OC(=O)[C@@H](N)CCCCNC(=O)OCc1ccccc1 [compound 25],1
10,CC(C)(C)OC(=O)NCCCC[C@H](NC(=O)OCc1ccccc1)C(=O)O [compound 32],>1
11,CC(C)(C)OC(=O)NCCCC[C@H](NC(=O)OCC1c2ccccc2-c2ccccc21)C(=O)O [compound 39],<1
12,N[C@@H](CCCCNC(=O)OCc1ccccc1)C(=O)O [compound 11],1
13,COC(=O)[C@@H](N)CCCCN [compound 7],1
14,COC(=O)[C@@H](N)CCCCNC(=O)OC(C)(C)C [compound 27],>1
15,O=C(NCCCC[C@H](NC(=O)OCc1ccccc1)C(=O)O)OCc1ccccc1 [compound 33],>1
16,NCCCC[C@H](NC(=O)/C=C/c1ccccc1)C(=O)O [compound 16],<1
17,CC(C)(C)OC(=O)N[C@@H](CCCCNC(=O)OCc1cccc(Cl)c1)C(=O)O [compound 36],>1
18,N[C@H](CCCCNC(=O)c1ccccc1)C(=O)O [compound 10],<1
19,COC(=O)[C@H](CCCCN)NC(=O)OCc1ccccc1 [compound 22],>1
20,NCCCC[C@H](NC(=O)OCc1ccccc1)C(=O)OCc1ccccc1 [compound 23],<1
21,CC(C)(C)OC(=O)N[C@@H](CCCCNC(=O)OCc1ccccc1)C(=O)O [compound 31],>1

row,Structure (SMILES),Activity level
1,N[C@H](CCCCNC(=O)OCc1ccccc1)C(=O)O [compound 13],<1
2,CN(C)CCCC[C@H](N)C(=O)O [compound 14],>1
3,O=C(NCCCCCNC(=O)c1ccccc1)c1ccccc1 [II-2],> 1
4,N[C@@H](CCCCNC(=O)OCc1ccccc1)C(=O)OCc1ccccc1 [compound 26],<1
5,Cc1ccc(C(NCCCC[C@H](NC(=O)OCC2c3ccccc3-c3ccccc32)C(=O)O)(c2ccccc2)c2ccccc2)cc1 [compound 43],>1
6,CC(C)(C)OC(=O)N[C@@H](CCCCNC(=O)OC(F)(F)F)C(=O)O [compound 38],>1
7,CC(C)(C)OC(=O)NCC[C@H](NC(=O)OCc1ccccc1)C(=O)O [compound 20],>1
8,Cc1cccc(OCC(=O)NCCCC[C@H](NC(=O)COc2cccc(C)c2)C(=O)O)c1 [compound 44],>1
9,Cn1c(=O)n(CCCC[C@H](NC(=O)c2c(Cl)cccc2Cl)C(=O)O)c(=O)c2ccccc21 [compound 46],>1
10,O=C(NCCCC[C@H](NC(=O)OCc1ccccc1)C(=O)O)OCC1c2ccccc2-c2ccccc21 [compound 41],<1
11,CC(C)(C)OC(=O)NC[C@H](NC(=O)OCc1ccccc1)C(=O)O [compound 19],>1
12,COC(=O)[C@@H](N)CCCCNC(=O)OCc1ccccc1 [compound 24],>1
13,N[C@@H](CCCCNC(=O)c1ccccc1)C(=O)O [compound 9],<1
14,O=C(NCCC[C@H](NC(=O)c1ccccc1)C(=O)O)c1ccccc1 [compound 6],>1
15,CC(C)(C)OC(=O)N[C@@H](CCCCNC(=O)OCC1c2ccccc2-c2ccccc21)C(=O)O [compound 40],>1
16,CC(C)(C)OC(=O)NCCCC[C@H](NC(=O)OC(C)(C)C)C(=O)O [compound 37],>1
17,COC(=O)[C@H](CCCCNC(=O)OC(C)(C)C)NC(=O)OCc1ccccc1 [compound 29],>1
18,O=C(NCCC[C@H](NC(=O)OCc1ccccc1)C(=O)O)OCc1ccccc1 [compound 18],>1
19,CC(=O)N[C@@H](CCCCN)C(=O)O [compound 15],<1
20,O=C(NCCCC[C@H](NC(=O)c1ccccc1)C(=O)O)c1ccccc1 [compound 30],<1
21,CCC(C)C(=O)C(=O)N[C@@H](CCCCNC(=N)N)C(=O)O (some centres unmarked) [compound 21],<1

# Tested on: RD29A, RD29B, MAPKKK18, ABF3F and SLAC1 genes
# Experiment: Induction of expression of environmental stress tolerance (ABA-responsive) genes, real-time PCR, relative to GAPDH
# Format: in vivo, Arabidopsis thaliana
# Conditions: RD29B expression; amino acid in combination with ABA
# Procedure: as §1
# MAPKKK18 is a gene encoding a kinase (MAPKKK18, MITOGEN-ACTIVATED PROTEIN KINASE KINASE KINASE 18) that functions in the ABA signaling pathway of Arabidopsis thaliana (Zelicourt A. et al., Trends in Plant Science 21: (2016)). RD29A and RD29B are genes encoding hydrophilic proteins (RESPONSIVE TO DESICCATION 29A, RESPONSIVE TO DESICCATION 29B) that are responsive for ABA and environmental stress such as drought stress and salinity stress and considered to be involved in stress tolerance and senescence suppression (Yang S. D. et al., Plant Cell 6: 2155-2168 (2011)). ABF3 is a gene encoding a transcription factor (ABA-responsive element-binding protein) that regulates expression of ABA-responsive genes (Yoshida T. et al., Plant, cell and Environment 38: 35-49 (2015)). SLAC1 is a gene encoding an anion channel involved in stomatal closure (Yoshida et al., J Plant Res (2016) 129:39-49). GAPDH is a glyceraldehyde-3-phosphate dehydrogenase gene and was selected as an internal standard.
# The expression levels of the genes were calculated as relative expression levels to the GAPDH gene. Twenty amino acids were divided into 10 each, and the gene expression inducing activity when combined with ABA was evaluated in two tests (n=2).
# (§2) The expression levels of the respective genes were calculated as relative expression levels to the GAPDH gene in the same manner as in Example 1.
# Separately, Arabidopsis thaliana was treated with a combination of 0.1 mM, 0.25 mM, 1 mM, 2.5 mM, 10 mM, or 25 mM of Lys and 0.25 μM of ABA in the same manner as in Example 1, and expression of MAPKKK18, RD29A, and RD29B genes after 6 hours of treatment was analyzed (n=3). The expression levels of the respective genes were calculated as relative expression levels to the GAPDH gene in the same manner as in Example 1. […]
# as §2, §2
row,Structure (SMILES),activity of synergistically enhancing the effect of ABA
1,"CC(C)[C@H](N)C(=O)O [Val, valine]",synergistically enhance the effect of ABA
2,"N[C@@H](Cc1c[nH]c2ccccc12)C(=O)O [Trp, tryptophan]",synergistically enhance the effect of ABA

# Same assay, conditions: amino acid alone or combination with ABA, 6 hours, n=3
row,Structure (SMILES),activity to induce expression of the environmental stress tolerance gene RD29B
1,"CC(C)[C@H](N)C(=O)O [Val, valine]",No activity

# Tested on: RD29A, RD29B, MAPKKK18, ABF3F and SLAC1 genes
# Experiment: as above
# Format: in vivo, Arabidopsis thaliana
# Conditions: amino acid alone or combination with ABA, 6 hours, n=3
row,Structure (SMILES),activity to induce expression of the environmental stress tolerance gene RD29B
1,"N[C@@H](Cc1c[nH]c2ccccc12)C(=O)O [Trp, tryptophan]",No activity

# — US20230210110A1, “METHOD FOR INDUCING ENVIRONMENTAL STRESS TOLERANCE IN PLANTS” (AJINOMOTO CO., INC., priority 2020, published 2023)
